Measurements taken from US20110039762A1, “TARGETED ANTIMICROBIAL MOIETIES” (C3 JIAN, INC., priority 2009, published 2011).
“Also recorded” adds a separate entry of the source.

Key:
[1] = tested on: B. subtilis; experiment: Kill or inhibit growth/proliferation; morphology, biofilm and growth disruption (Tables 5, 6); format: cell-based, Bacillus subtilis; design: key: A: Peptide aggregates; B: Less hyphal formation; Clumps; Diffuse clumps and small polyps; F: Diffuse growth; H: Thin; I: Growth inhibition; Microcolony formation; Rippled; Small polyps; Thick; W: Halo formation on top, microlonies on bottom; also: test concentration or dose not given here
[2] = tested on: S. pneumoniae; experiment: as above; format: cell-based, Streptococcus pneumoniae; design: key: A: Peptide aggregates; B: Less hyphal formation; Clumps; Diffuse clumps and small polyps; F: Diffuse growth; H: Thin; I: Growth inhibition; Microcolony formation; Rippled; Small polyps; Thick; W: Halo formation on top, microlonies on bottom; also: test concentration or dose not given here
[3] = tested on: microorganisms (e.g., bacteria, yeasts, fungi); experiment: Targeting peptide binding to target microorganisms (Table 3); conditions: preferably 1x PBS
[4] = tested on: microorganisms; experiment: Peptides having multiple activities (targeting/binding, antimicrobial, growth or phenotype altering)
Text: In certain embodiments, peptides described herein can have multiple activities. Thus for example, a peptide can have both binding/targeting activity and antimicrobial activity. Such peptides can be used, e.g., in a chimeric construct, for any or all of these properties. Thus, for example, a peptide designated “B” in Table 8 can be used as a targeting peptide. If it is also designated G or M it can also be used for antimicrobial activity.

[5] = tested on: C. jeikeium; experiment: Kill or inhibit growth/proliferation; morphology, biofilm and growth disruption (Tables 5, 6); format: cell-based, Corynebacterium jeikeium; design: key: A: Peptide aggregates; B: Less hyphal formation; Clumps; Diffuse clumps and small polyps; F: Diffuse growth; H: Thin; I: Growth inhibition; Microcolony formation; Rippled; Small polyps; Thick; W: Halo formation on top, microlonies on bottom; also: test concentration or dose not given here
[6] = tested on: M. luteus; experiment: as above; format: cell-based, Micrococcus luteus; design: key: A: Peptide aggregates; B: Less hyphal formation; Clumps; Diffuse clumps and small polyps; F: Diffuse growth; H: Thin; I: Growth inhibition; Microcolony formation; Rippled; Small polyps; Thick; W: Halo formation on top, microlonies on bottom; also: test concentration or dose not given here
[7] = tested on: MRSA; experiment: as above; format: cell-based, Methicillin-resistant Staphylococcus aureus; design: key: A: Peptide aggregates; B: Less hyphal formation; Clumps; Diffuse clumps and small polyps; F: Diffuse growth; H: Thin; I: Growth inhibition; Microcolony formation; Rippled; Small polyps; Thick; W: Halo formation on top, microlonies on bottom; also: test concentration or dose not given here
[8] = tested on: S. epidermidis; experiment: as above; format: cell-based, Staphylococcus epidermidis; design: key: A: Peptide aggregates; B: Less hyphal formation; Clumps; Diffuse clumps and small polyps; F: Diffuse growth; H: Thin; I: Growth inhibition; Microcolony formation; Rippled; Small polyps; Thick; W: Halo formation on top, microlonies on bottom; also: test concentration or dose not given here
[9] = tested on: C. jejuni; experiment: as above; format: cell-based, Campylobacter jejuni; design: key: A: Peptide aggregates; B: Less hyphal formation; Clumps; Diffuse clumps and small polyps; F: Diffuse growth; H: Thin; I: Growth inhibition; Microcolony formation; Rippled; Small polyps; Thick; W: Halo formation on top, microlonies on bottom; also: test concentration or dose not given here
[10] = microorganism the targeting peptide binds, binding in aqueous buffers varied by peptide solubility
[11] = microorganism(s) the targeting peptide binds, peptide binding conducted in aqueous buffers varied by peptide solubility

| Substance | Organism, effect [1] | Target(s) [3, 10] | Activities [4] | Organism, effect [7] | Target(s) [3, 11] | further results |
| --- | --- | --- | --- | --- | --- | --- |
| PF-002: peptide having multiple activities (chain 1 NDDAQ; chain 2 NDDAQ; Peptide with targeting and/or antimicrobial activity) | B. subtilis (R) | S. epidermidis; also recorded: P. mirabilis; also recorded: C. albicans; also recorded: C. jeikeium; also recorded: C. jejuni | G B | – | – | Organism, effect [2]: S. pneumoniae (H) |
| PF-021: peptide having multiple activities (chain 1 FSLNFSKQKYVTVN; chain 2 FSLNFSKQKYVTVN; Peptide with targeting and/or antimicrobial activity) | – | S. epidermidis; also recorded: M. luteus; also recorded: P. mirabilis; also recorded: E. coli; also recorded: C. albicans; also recorded: E. faecalis; also recorded: C. jeikeium | G B | MRSA (R) | – | Organism, effect [5]: C. jeikeium (R); Organism, effect [6]: M. luteus (A); Organism, effect [8]: S. epidermidis (A) |
| PF-025: peptide having multiple activities (chain 1 LLIIFRLWLELKWKNKK; chain 2 LLIIFRLWLELKWKNKK; Peptide with targeting and/or antimicrobial activity) | – | S. epidermidis and M. luteus and P. mirabilis and E. coli and P. aeruginosa and MRSA and E. faecalis and C. jejuni | G B | MRSA (R) | – | Organism, effect [5]: C. jeikeium (A); Organism, effect [6]: M. luteus (A); Organism, effect [8]: S. epidermidis (S) |
| PF-036: peptide having multiple activities (chain 1 ILNRLSRIVSNEVTSLIYSLK; chain 2 ILNRLSRIVSNEVTSLIYSLK; Peptide with targeting and/or antimicrobial activity) | – | S. epidermidis and M. luteus and P. mirabilis and E. coli and C. albicans and MRSA and S. pneumoniae and C. jejuni | G B | MRSA (R) | – | Organism, effect [5]: C. jeikeium (A); Organism, effect [6]: M. luteus (A); Organism, effect [8]: S. epidermidis (S) |
| PF-043: peptide having multiple activities (chain 1 MIKNETAYQMNELLVIRSAYAK; chain 2 MIKNETAYQMNELLVIRSAYAK; Peptide with targeting and/or antimicrobial activity) | – | M. luteus; also recorded: C. jejuni | G B | MRSA (R) | – | Organism, effect [5]: C. jeikeium (A); Organism, effect [6]: M. luteus (C); Organism, effect [8]: S. epidermidis (D) |
| PF-052: peptide having multiple activities (chain 1 QELINEAVNLLVKSK; chain 2 QELINEAVNLLVKSK; Peptide with targeting and/or antimicrobial activity) | – | S. epidermidis and M. luteus and E. coli and MRSA and E. faecalis and C. jeikeium and C. jejuni | G B | MRSA (R) | – | Organism, effect [5]: C. jeikeium (D); Organism, effect [6]: M. luteus (A); Organism, effect [8]: S. epidermidis (S) |
| PF-070: peptide having multiple activities (SMVKSEIVDLLNGEDNDD; Peptide with targeting and/or antimicrobial activity) | B. subtilis (D) | S. epidermidis; also recorded: C. jejuni | G B | – | – | – |
| PF-303 (EYPWSWISEPWPWDKSFYK; Peptide with targeting and/or antimicrobial activity) | B. subtilis (C) | – | – | – | – | – |
| PF-306: peptide having multiple activities (GCILPHKKDNYNYIMSKFQDLVKITSKK; Peptide with targeting and/or antimicrobial activity) | B. subtilis (C) | – | G B | – | – | Target(s) ([3]; microorganism(s) the targeting peptide binds, binding in aqueous buffers depending on peptide solubility): C. difficile |
| PF-550: peptide having multiple activities (chain 1 STENGWQEFESYADVGVDPRRYVPL; chain 2 STENGWQEFESYADVGVDPRRYVPL; Peptide with targeting and/or antimicrobial activity) | B. subtilis (D) | – | G B | – | S. pneumoniae | – |
| PF-552: peptide having multiple activities (chain 1 ELDKADAALGPAKNLAPLDVINRS; chain 2 ELDKADAALGPAKNLAPLDVINRS; Peptide with targeting and/or antimicrobial activity) | B. subtilis (D) | – | G B | – | S. pneumoniae | – |
| PF-554: peptide having multiple activities (chain 1 AKNFLTRTAEEIGEQAVREGNINGP; chain 2 AKNFLTRTAEEIGEQAVREGNINGP; Peptide with targeting and/or antimicrobial activity) | B. subtilis (D) | – | G B | – | S. pneumoniae | – |
| PF-557: peptide having multiple activities (chain 1 AANKAREQAAAEAKRKAEEQAR; chain 2 AANKAREQAAAEAKRKAEEQAR; Peptide with targeting and/or antimicrobial activity) | B. subtilis (D) | – | G B | – | S. pneumoniae | – |
| PF-561 (ESLEADVQAELDTEAAKYPALPASF; Peptide with targeting and/or antimicrobial activity) | B. subtilis (D) | – | – | MRSA (M) | – | – |
| PF-565 (RAEAEAQRQAEADAKRKAEEAARL; Peptide with targeting and/or antimicrobial activity) | B. subtilis (D) | – | – | MRSA (C) | – | – |
| PF-567: peptide having multiple activities (chain 1 QQRVKAVDASLSQVSTQVSGAVASA; chain 2 QQRVKAVDASLSQVSTQVSGAVASA; Peptide with targeting and/or antimicrobial activity) | – | – | G B | MRSA (D) | S. epidermidis and P. aeruginosa and C. albicans and MRSA and S. pneumoniae and C. jeikeium | Organism, effect [5]: C. jeikeium (C); Organism, effect [6]: M. luteus (C); Organism, effect [2]: S. pneumoniae (D); Organism, effect [9]: C. jejuni (D) |
| PF-569: peptide having multiple activities (chain 1 KSKISEYTEKEFLEFVEDIYTNNK; chain 2 KSKISEYTEKEFLEFVEDIYTNNK; Peptide with targeting and/or antimicrobial activity) | B. subtilis (D) | – | G B | – | M. luteus; also recorded: P. mirabilis; also recorded: S. pneumoniae; also recorded: E. faecalis; also recorded: C. jeikeium | – |
| PF-571 (SDLLYYPNENREDSPAGVVKEVKE; Peptide with targeting and/or antimicrobial activity) | B. subtilis (D) | – | – | – | – | – |
| PF-572: peptide having multiple activities (chain 1 WRASKGLPGFKAG; chain 2 WRASKGLPGFKAG; Peptide with targeting and/or antimicrobial activity) | B. subtilis (D) | – | G B | – | S. epidermidis; also recorded: M. luteus; also recorded: E. coli; also recorded: S. pneumoniae; also recorded: C. jeikeium | Organism, effect [2]: S. pneumoniae (R) |
| PF-574 (LVKSGKLESPYEHSEHLTLSQEKGLE; Peptide with targeting and/or antimicrobial activity) | B. subtilis (D) | – | – | – | – | – |
| PF-670 (chain 1 TVIVAPMHSGV; chain 2 TVIVAPMHSGV; Peptide with targeting and/or antimicrobial activity) | – | – | – | – | – | Organism, effect (morphology, biofilm and growth disruption) [1]: B. subtilis (H); Organism, effect (morphology, biofilm and growth disruption) [2]: S. pneumoniae (H) |
